Measurements: patent US20120129818A1, “Compositions and Methods for Treatment of Cardiovascular Disease” (priority 2009, published 2012)

What was measured:
[1] = tested on: human low-density lipoprotein (LDL); test: Cu (II) induced LDL oxidation, conjugated diene formation at 234 nm; format: biochemical; details: 10 and 25 μM compound, 100 μg LDL protein, 5 μM Cu (II), pH 7.4, room temperature (FIG. 6)
Experimental: To determine the effect of the presently-disclosed compounds on low-density lipoprotein (LDL) oxidation, standard LDL oxidation reactions were carried out in the presence of methylenedioxyphenyl ferulate (FMDP; Formula (II)) and ferulylproline (Formula (XVI). Briefly, the in vitro oxidation reaction of LDL was carried out at room temperature in potassium phosphate buffer, pH 7.4. The reaction mixture contained 100 μg LDL protein and 5 μM Cu (II) with a final volume of 1 mL. The oxidation of LDL was followed by measuring the formation of a conjugated diene at 234 nm for a total of 300 min using a spectrophotometer. The time course of Cu (II) induced LDL oxidation was then performed. […] The increase in the oxidation of LDL in presence of 10 μM and 25 μM ferulylproline was attributed to the formation of Cu (II)-ferulylproline complex which would act as a pro-oxidant of LDL. Oxidation of LDL lipid by Cu (II) mediated oxidation both in the absence of any inhibitor and in the presence of 10 μM and 25 μM of methylenedioxyphenyl ferulate and ferulylproline was performed by monitoring the oxidation for 200 minutes.

MPO = molecular target: T1, MPO (Homo sapiens, UniProt P05164); test: Analysis of whether the compounds act as MPO substrates (UV-Visible spectrum, TLC); format: biochemical
T1 sequence (P05164 49-745): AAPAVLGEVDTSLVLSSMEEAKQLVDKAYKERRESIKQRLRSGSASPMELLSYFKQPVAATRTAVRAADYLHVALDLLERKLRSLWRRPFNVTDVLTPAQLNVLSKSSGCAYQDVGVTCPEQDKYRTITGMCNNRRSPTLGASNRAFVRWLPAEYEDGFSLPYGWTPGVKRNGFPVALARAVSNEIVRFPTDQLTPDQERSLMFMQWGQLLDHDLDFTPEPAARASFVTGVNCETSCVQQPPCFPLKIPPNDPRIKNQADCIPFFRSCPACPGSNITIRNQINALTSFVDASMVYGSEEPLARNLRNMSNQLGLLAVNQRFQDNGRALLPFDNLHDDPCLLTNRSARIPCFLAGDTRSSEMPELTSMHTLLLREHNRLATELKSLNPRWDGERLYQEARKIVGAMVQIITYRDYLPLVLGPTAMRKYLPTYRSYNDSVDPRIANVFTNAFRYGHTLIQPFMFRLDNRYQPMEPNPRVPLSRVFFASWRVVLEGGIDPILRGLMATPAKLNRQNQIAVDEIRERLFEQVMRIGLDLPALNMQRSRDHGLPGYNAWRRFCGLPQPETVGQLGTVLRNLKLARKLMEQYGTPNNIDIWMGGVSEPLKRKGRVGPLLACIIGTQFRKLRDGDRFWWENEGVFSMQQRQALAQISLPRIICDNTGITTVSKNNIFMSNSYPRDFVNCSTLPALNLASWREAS
Experimental: It is known that MPO acts on a variety of substrates and, as such, it was thought that it may be theoretically possible that methylenedioxyphenyl ferulate (Formula (II)) and ferulylproline (Formula (XVI)) could be acting as MPO substrates and competitively masking the formation of products from the added substrates in the above-described experiments. […] In these experiments, a reaction mixture was produced that contained 720 μL of sodium acetate buffer, 100 μL of 100 mM H2O2, 100 μL of MPO enzyme with added compounds of the present invention, and a total volume made up to 1 mL. Upon analysis of this reaction mixture, however, there was no indication of any colored product even when the reaction mixture contained only the inhibitor and not the MPO substrate. To strengthen this finding, thin layer chromatography (TLC) was run with the MPO assay solution and inhibitor (50% ethylacetate:hexane) and spot identification was done in an iodine chamber.

human MPO = molecular target: T2, human MPO (Homo sapiens, UniProt P05164); test: Myeloperoxidase (MPO) activity assay with tetramethyl benzidine (TMB) substrate; format: biochemical; details: for Ki: 50 mM sodium acetate buffer pH 5.6, read-out: Ki (inhibitory values of MPO)
T2 construct: purchased Sigma-Aldrich
From the text: Various methods of measuring a reduction in MPO activity are known to those of ordinary skill in the art and can be used in accordance with the present invention. For example, in one embodiment, MPO activity can be measured by combining an amount of an MPO enzyme, or a sample containing an MPO enzyme, with H2O2, a tetramethyl benzidine (TMB) substrate, and an MPO inhibitor (e.g., a compound of the present invention), and then measuring the optical density of the resulting product.
Typically, the reaction mixture (200 μl) contained 20 mU human MPO (Sigma-Aldrich, St. Louis, Mo.), 400 nmol H2O2, 1.6 μmol of TMB, and varying concentrations of methylenedioxyphenyl ferulate (Formula (II)) or ferulylproline (Formula (XVI)).
The reaction was performed in a volume of 200 μl with 50 mM sodium acetate buffer at pH 5.6. The reaction was initiated by adding MPO and the optical density of the product formed was then read at 650 nm in a microplate reader at various time points.

[2] = tested on: xanthine/xanthine oxidase; test: Superoxide mediated cytochrome c reduction catalyzed by xanthine/xanthine oxidase; format: biochemical; details: different concentrations of inhibitor, 549 nm (FIG. 7)
Experimental: The reaction mixture contained 250 μL of 5 mM hypoxanthine (1.25 mM final concentration), 100 μL of cytochrome c in buffer, 10 μL of xanthine oxidase enzyme and different concentrations of inhibitor. The final volume was made up to 1 mL with phosphate buffer. The oxidation was monitored by scanning wavelengths between 500 nm to 600 nm with five measurements. The cycle scanning time was 30 seconds.

[3] = Chlorotaurine formation (HOCl-mediated chlorination of taurine, TNB readout at 412 nm); details: various concentrations, 37° C. for 10 min, absorption 412 nm (FIG. 8)
Experimental: Chlorotaurine is formed by the oxidation of taurine by the chlorinating oxidant hypochlorous acid (HOCl), which is formed by MPO-mediated 2-electron oxidation of chloride by H2O2. To determine if the compounds of the present invention were capable of inhibiting the formation of chlorotaurine, a reaction mixture was produced that contained 50 uL of 150 mM taurine, various concentrations of methylenedioxyphenyl ferulate (Formula (II)) or ferulylproline (Formula (XVI)), and 250 μL of hypochlorous acid in sodium phosphate buffer. The mixture was incubated at 37° C. for 10 min followed by addition of 60 μL of 40 mM thionitrobenzoic acid (TNB). The whole solution was made up to 1.5 mL and absorption was measured at 412 nm using a UV-Visible spectrophotometer. […] Furthermore, although both of these compounds react differently toward chlorotaurine oxidation, they seem to show specificity toward MPO inhibition.

Product formation during the MPO reaction by TLC / MPO substrate behaviour (MPO; MPO assay solution and inhibitor, 50% ethylacetate:hexane, iodine chamber) | Product formation in UV-Visible spectrum between 200 to 700 nm with and without MPO (MPO; sodium acetate buffer, H2O2, MPO enzyme, no MPO substrate (FIGS. 9 and 10)) | Ki (human MPO) [µM] | Inhibition of MPO activity (human MPO; varying concentrations, OD 650 nm (FIGS. 4 and 5)) | Inhibition of superoxide mediated cytochrome c reduction [2] | SMILES | Effect on Cu (II) induced LDL oxidation [1] | Inhibition of chlorotaurine formation [3]
do not act as an MPO substrate | failed to show any product | 4 | significantly inhibited MPO | inhibited the reaction | COc1cc(/C=C/C(=O)N2CCCC2C(=O)O)ccc1O (centres unmarked) [ferulylproline] | acted as a pro-oxidant reducing the lag time | did not cause any inhibition
 |  | 8.5 |  |  | COc1cc(/C=C/C(=O)Oc2ccc3c(c2)OCO3)ccc1O [methylenedioxyphenyl ferulate] |  | 
